US11124541B2, “Chimeric melanocortin ligands and methods of use thereof” (REGENTS OF THE UNIVERSITY OF MINNESOTA, priority 2016, dated 2021)
Several values for one entry are separate records, joined by “and”; a condition that tells them apart may be missing. Equal entries are not always repeated. Where two headings read alike, the source gives them in different places. Each block holds one molecule with its values, some of them ahead of it. Non-standard residues stand in square brackets, D forms with d. Residues, ends and D or L forms follow the SMILES beside them. No end group written: not given here. Dap = NC[C@H](N)C(=O)O

What was measured:
male mice = experiment: ICV or IT administration in male mice monitored in TSE metabolic cages; assay type: in vivo
Text: As described herein, compound 2 (c[Pro-His-DPhe-Arg-Trp-Dap-Ala-DPro] (SEQ ID NO:4)) has been administered in male mice. This compound has been administered via a cannula directly into the brain (ICV administration) or through an injection into the spinal cord (IT administration), at three different doses each administration route (2 nmol, 5 nmol, and 10 nmol). After compound administration, the mice were monitored in TSE metabolic cages, which record food intake, water intake, ambulatory activity (how many times a mouse breaks a light beam, which can give an indication of toxicity), respiratory-exchange ratio (RER, ratio between amount of CO2 produced in metabolism and O2 consumed, giving an indication if fat [RER value closer to 0.7] or carbohydrates [RER value closer to 1] is the energy source being utilized), and energy expenditure.

mMC1R [1] = biological target: T1, mMC1R (Mus musculus, UniProt Q01727); experiment: cAMP AlphaScreen agonist assay, HEK293 cells stably expressing mouse MC1R
T1 sequence (Q01727 whole entry): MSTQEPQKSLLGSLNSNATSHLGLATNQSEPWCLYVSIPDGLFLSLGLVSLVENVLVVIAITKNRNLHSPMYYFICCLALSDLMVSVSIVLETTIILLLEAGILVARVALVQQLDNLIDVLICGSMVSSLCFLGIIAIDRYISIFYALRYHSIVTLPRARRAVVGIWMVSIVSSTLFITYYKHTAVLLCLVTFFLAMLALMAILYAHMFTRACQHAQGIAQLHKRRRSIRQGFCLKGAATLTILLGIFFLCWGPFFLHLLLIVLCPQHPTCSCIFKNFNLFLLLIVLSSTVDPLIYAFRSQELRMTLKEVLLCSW

mMC3R [2] = biological target: T2, mMC3R (Mus musculus, UniProt P33033); experiment: cAMP AlphaScreen agonist assay, HEK293 cells stably expressing mouse MC3R
T2 sequence (P33033 whole entry): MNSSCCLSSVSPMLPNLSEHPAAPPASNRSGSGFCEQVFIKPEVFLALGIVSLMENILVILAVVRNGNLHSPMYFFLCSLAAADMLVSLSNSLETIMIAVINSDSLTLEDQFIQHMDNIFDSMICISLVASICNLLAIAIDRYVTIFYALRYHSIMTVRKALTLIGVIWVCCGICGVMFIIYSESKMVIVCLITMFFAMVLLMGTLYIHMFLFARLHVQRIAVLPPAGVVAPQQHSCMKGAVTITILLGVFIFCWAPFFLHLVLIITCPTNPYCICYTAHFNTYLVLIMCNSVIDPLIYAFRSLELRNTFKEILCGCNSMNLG

mMC4R [3] = biological target: T3, mMC4R (Mus musculus, UniProt P56450); experiment: cAMP AlphaScreen agonist assay, HEK293 cells stably expressing mouse MC4R
T3 sequence (P56450 whole entry): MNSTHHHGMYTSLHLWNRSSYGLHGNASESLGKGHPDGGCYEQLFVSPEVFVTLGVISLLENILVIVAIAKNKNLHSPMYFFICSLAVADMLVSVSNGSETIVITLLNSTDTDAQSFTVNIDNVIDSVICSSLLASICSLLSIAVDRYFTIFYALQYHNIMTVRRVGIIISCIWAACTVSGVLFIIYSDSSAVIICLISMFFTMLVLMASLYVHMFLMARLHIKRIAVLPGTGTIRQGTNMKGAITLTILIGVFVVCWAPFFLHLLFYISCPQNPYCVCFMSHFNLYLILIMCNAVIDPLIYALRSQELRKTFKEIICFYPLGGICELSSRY

mMC5R [4] = biological target: T4, mMC5R (Mus musculus, UniProt P41149); experiment: cAMP AlphaScreen agonist assay, HEK293 cells stably expressing mouse MC5R
T4 sequence (P41149 whole entry): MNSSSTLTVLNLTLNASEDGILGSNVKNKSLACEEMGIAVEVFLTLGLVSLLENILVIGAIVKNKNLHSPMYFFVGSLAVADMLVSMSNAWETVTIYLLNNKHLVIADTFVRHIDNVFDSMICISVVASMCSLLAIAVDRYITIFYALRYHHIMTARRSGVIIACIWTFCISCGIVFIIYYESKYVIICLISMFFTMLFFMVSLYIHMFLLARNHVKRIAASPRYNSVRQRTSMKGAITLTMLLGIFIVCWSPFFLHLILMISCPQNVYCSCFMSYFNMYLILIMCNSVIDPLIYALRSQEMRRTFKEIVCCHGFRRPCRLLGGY

mMC4R [5] = biological target: T3, mMC4R; parameters: expressed in transfected cells; host or cells: HEK293; details: AGRP intrinsic potency; cited from earlier work
mMC5R [6] = biological target: T4, mMC5R; parameters: expressed in transfected cells; host or cells: HEK293; details: literature value; read-out: reported agonist potency at the mMC5R; cited from earlier work
mMC1R [7] = biological target: T1, mMC1R; parameters: expressed in transfected cells; host or cells: HEK293; details: literature value; read-out: reported agonist potency at the mMC1R; cited from earlier work
mMC4R [8] = biological target: T3, mMC4R; parameters: expressed in transfected cells; host or cells: HEK293; details: cited from earlier work; for EC50: literature value, read-out: reported agonist potency at the mMC4R; for reported selectivity for the mMC4R over the mMC3R: literature chimeric ligands
mMC3R [9] = biological target: T2, mMC3R; parameters: expressed in transfected cells; host or cells: HEK293; details: literature value; read-out: reported agonist potency at the mMC3R; cited from earlier work
[10] = compound versus vehicle treated animals

Molecule: C[C@@H]1NC(=O)[C@H](CN)NC(=O)[C@H](Cc2c[nH]c3ccccc23)NC(=O)[C@H](CCCNC(=N)N)NC(=O)[C@@H](Cc2ccccc2)NC(=O)[C@H](Cc2c[nH]cn2)NC(=O)[C@@H]2CCCN2C(=O)[C@H]2CCCN2C1=O [MDE6-5-2c, c[Pro-His-DPhe-Arg-Trp-Dap-Ala-DPro]] (cyclo(H[dF]RW[Dap]A[dP]P))
cumulative food intake following ICV administration, 10 nmol (male mice; ICV, 10 nmol, 72 h): decreased food intake through 72 h
Respiratory Exchange Ratio (RER) effect, ICV 10 nmol (male mice; ICV, 10 nmol, first 24 h, versus lower doses): more robust
cumulative food intake following ICV administration (male mice; ICV, 2, 5, 10 nmol, first 24 h, dose response): further decreased food intake
Respiratory Exchange Ratio (RER), ICV 2 and 5 nmol (male mice; ICV, 2 and 5 nmol, first 24 h): decreased RER compared to vehicle control
Respiratory Exchange Ratio (RER) effect, IT administration (male mice; IT): more modest effect
cumulative food intake following IT administration (male mice; IT, 2, 5, 10 nmol, not dose-responsive): decreased food intake was observed
energy expenditure (male mice; [10]): not different
water intake (male mice; [10]): not different
duration of effects on RER following a single dose (male mice; single dose, all cases): 24 h

ambulatory activity (male mice; [10]): not different
EC50 (mMC1R [1]; read-out: mMC1R EC50, agonist, cAMP): 1100 pM
EC50 (mMC3R [2]; read-out: mMC3R EC50, agonist, cAMP): 40000 pM
selectivity for the mMC4R over the mMC3R (mMC4R [3]; agonist potency): 25 fold
EC50 (mMC4R [3]; read-out: mMC4R EC50, agonist, cAMP): 1600 pM
EC50 (mMC5R [4]; read-out: mMC5R EC50, agonist, cAMP): 300 pM
Molecule: C[C@@H]1NC(=O)[C@H](CN)NC(=O)[C@H](Cc2c[nH]c3ccccc23)NC(=O)[C@H](CCCNC(=N)N)NC(=O)[C@@H](Cc2ccccc2)NC(=O)[C@H](Cc2cnc[nH]2)NC(=O)[C@@H]2CCCN2C(=O)[C@H]2CCCN2C1=O [MDE6-5-2c, c[Pro-His-DPhe-Arg-Trp-Dap-Ala-DPro]] (cyclo(H[dF]RW[Dap]A[dP]P))

decreased agonist potency at mMC1R relative to MDE6-5-2c (mMC1R [1]; relative to MDE6-5-2c): 418 fold
agonist activity/efficacy at mMC3R (in words) (mMC3R [2]; concentrations up to 100 μM): partially stimulated
decreased agonist potency at mMC4R relative to MDE6-5-2c (mMC4R [3]; relative to MDE6-5-2c): 593 fold
decreased agonist potency at mMC5R relative to MDE6-5-2c (mMC5R [4]; relative to MDE6-5-2c): 1,100 fold
Molecule: N=C(N)NCCC[C@@H]1NC(=O)[C@@H](Cc2ccccc2)NC(=O)[C@H](Cc2c[nH]cn2)NC(=O)[C@@H]2CCCN2C(=O)[C@H]2CCCN2C(=O)[C@H](CN)NC(=O)[C@H](Cc2c[nH]c3ccccc23)NC1=O [MDE6-12-2c, c[Pro-His-DPhe-Arg-Trp-Dap-DPro]] (cyclo(PH[dF]RW[Dap][dP]))

Molecule: AGRP: agouti-related protein, naturally occurring melanocortin antagonist (SSRRCVRLHESCLGQQVPCCDPCATCYCRFFNAFCYCRKLGTAMNPCSRT; ends and bridges not checked; cysteine pairing not given here; UniProt O00253 83-132, looked up)
lower potency at the mMC3R versus the mMC4R (mMC4R [5]): ~10 fold

Molecule: Ac-mini-(His-DPhe-Arg-Trp)hAGRP-NH2
EC50 (mMC5R [6]): 600 pM and 560 pM
EC50 (mMC1R [7]): 160 pM
EC50 (mMC4R [8]): 1400 pM
EC50 (mMC3R [9]): 30000 pM

Molecule: Tyr-c[Asp-His-DPhe-Arg-Trp-Asn-Ala-Phe-Dap]-Tyr-NH2 (FRWNAF; Tyr-Asp-His, Dap lactam, Tyr-NH2; printed: Phe-Arg-Trp-Asn-Ala-Phe-) [previously reported lactam bridged AGRP/NDP-MSH chimeric ligand]
EC50 (mMC5R [6]): 500 pM
EC50 (mMC1R [7]): 200 pM
reported selectivity for the mMC4R over the mMC3R (mMC4R [8]): 5 fold
EC50 (mMC4R [8]): 200 pM
EC50 (mMC3R [9]): 1000 pM

Molecule: Tyr-c[Cys-His-DPhe-Arg-Trp-Asn-Ala-Phe-Cys]-Tyr-NH2 (FRWNAFC; not fully specified; Tyr-Cys-His, disulfide, Tyr-NH2; printed: Phe-Arg-Trp-Asn-Ala-Phe-Cys) [previously reported disulfide bridged AGRP/NDP-MSH chimeric ligand]
EC50 (mMC5R [6]): 2000 pM
EC50 (mMC1R [7]): 350 pM
reported selectivity for the mMC4R over the mMC3R (mMC4R [8]): 7 fold
EC50 (mMC4R [8]): 300 pM
EC50 (mMC3R [9]): 2000 pM
